Results: patent publication US8193192B2, “Heterocyclic FXR binding compounds” (Phenex Pharmaceuticals AG, priority 2006, dated 2012)
≈ marks a conversion by molar mass, not a printed value.

How the values were obtained:
[1] = Aqueous solubility assay, Protocol A, nephelometry method; assay type: physicochemical; conditions: PBS with 5% DMSO, aqueous with cosolvent or surfactant or cyclodextrin, kinetic from dmso stock, PBS pH 7.4, 5% DMSO, 23° C.
Method: (§1) Aqueous solubility of compounds was determined by nephelometry or by shake-flask method as follows:
Protocol A, Nephelometry Method:
Solubility of compounds was measured in PBS (pH 7.4), 5% DMSO at 23° C. Nepheloskan Ascent (Thermo Electron Corporation) nephelometer was used for measurement of light scattering. Tested compounds were dissolved in DMSO to 10 mM. Prior to measurement the compounds were further diluted with PBS in the wells to final compound concentrations of 100, 70, 50, 35, 25, 17, 12 and <10 μg/ml.
The plates were incubated at room temperature for 24 hours to reach equilibrium and the scattered light was measured. Assay validation: Aqueous solubility of acetylsalicylic acid was determined to validate the assay. […] Aqueous solubilities of examples and reference compounds are listed below in Table 2.

[2] = PAMPA permeability assay; assay type: in vitro ADME; conditions: % of compound found in the receiver compartment after 16 hours; PBS pH 7.4, 5% DMSO, 23° C.
Method: Artificial membrane permeability was determined as follows: Tested compounds were dissolved to 10 mM in 100% DMSO. Permeability of compounds was measured in PBS (pH 7.4), 5% DMSO at 23° C. Safire (Tecan) plate reader was used for measurement the UV/Vis absorption. Protocol: Dilute stocks of tested compounds and controls with PBS to 1.67 mM and mix well by pipetting, add 280 μl of PBS, 5% DMSO to acceptor plate, add 5 μl of 2% L-α-Phosphatidylcholine suspension in dodecane to the membrane of donor plate. Immediately add 98 μl of PBS to donor plate and make the sandwich with acceptor plate. Add 42 μl of tested compounds and controls dilutions to […], cover the plate, place into camera and incubate for 16 hours. Make the equilibrium plate, add 225 μl of PBS, 3.7% DMSO and 25 μl of tested compounds and controls dilutions to UV plate. After 16 hours pull the donor plate out and transfer 250 μl from acceptor plate to UV plate. Scan UV plate on Safire (Tecan) plate reader from […]. Permeability is reported in % of compound found in the receiver compartment after the incubation period. Applying this protocol, PAMPA permeabilities of examples and reference compounds were determined as follows (see Table 4): […]

[3] = target: T1, human farnesoid X receptor (FXR) alpha ligand binding domain (Homo sapiens, UniProt Q96RI1); assay: FRET activity assay (ligand mediated cofactor peptide interaction, LANCE); assay type: biochemical; conditions: FXR-LBD/SRC-1 peptide interaction
T1 construct: made in house; host or cells: E. coli BL21(DE3), vector pDEST15
T1 sequence (Q96RI1 187-472 isoform Q96RI1-2): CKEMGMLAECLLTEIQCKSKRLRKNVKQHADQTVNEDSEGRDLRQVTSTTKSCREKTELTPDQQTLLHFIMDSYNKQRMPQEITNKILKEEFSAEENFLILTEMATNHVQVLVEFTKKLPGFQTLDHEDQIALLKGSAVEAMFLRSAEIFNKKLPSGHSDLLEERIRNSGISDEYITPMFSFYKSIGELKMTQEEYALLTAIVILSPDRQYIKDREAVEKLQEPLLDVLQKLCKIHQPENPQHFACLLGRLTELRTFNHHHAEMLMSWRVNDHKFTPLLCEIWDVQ
Method: Determination of a ligand mediated cofactor peptide interaction to quantify ligand binding to the nuclear receptor Farnesoid X Receptor (FXR) was performed as follows:
Preparation of human farnesoid X receptor (FXR) alpha ligand binding domain: The human FXRalpha ligand binding domain (LBD) was expressed in E. coli strain BL21(DE3) as an N-terminally glutathione-S-transferase (GST) tagged fusion protein. The DNA encoding the FXR ligand binding domain was cloned into vector pDEST15 (Invitrogen). Expression was under control of an IPTG inducible T7 promoter. The amino acid boundaries of the ligand binding domain were amino acids 187-472 of Database entry NM_005123 (RefSeq). Expression and purification of the FXR-LBD: An overnight preculture of a transformed E. coli strain was diluted 1:20 in LB-Ampicillin medium and grown at 30° C. to an optical density of OD600=0.4-0.6. Gene expression was then induced by addition of 0.5 mM IPTG. Cells were incubated an additional 6 h at 30° C., 180 rpm. Cells were collected by centrifugation (7000×g, 7 min, room temperature). Per liter of original cell culture, cells were resuspended in 10 ml lysis buffer (50 mM Glucose, 50 mM Tris pH 7.9, 1 mM EDTA and 4 mg/ml lysozyme) and left on ice for 30 min. Cells were then subjected to sonication and cell debris removed via centrifugation (22000×g, 30 min, 4° C.). Per 10 ml of supernatant 0.5 ml prewashed Glutathione 4B sepharose slurry (Qiagen) was added and the suspension kept slowly rotating for 1 h at 4° C. Glutathione 4B sepharose beads were pelleted by centrifugation (2000 g, 15 sec, 4° C.) and washed twice in wash buffer (25 mM Tris, 50 mM KCl, 4 mM MgCl2 and 1 M NaCl). The pellet was resuspended in 3 ml elution buffer per liter of original culture (elution buffer: 20 mM Tris, 60 mM KCl, 5 mM MgCl2 and 80 mM glutathione added immediately prior to use as powder). The suspension was left rotating for 15 min at 4° C., the beads pelleted and eluted again with half the volume of elution buffer than the first time. The eluates were pooled and dialysed overnight in 20 mM Hepes buffer (pH 7.5) containing 60 mM KCl, 5 mM MgCl2 as well as 1 mM dithiothreitol and 10% (v/v) glycerol. The protein was analysed by SDS-Page.
The method measures the ability of putative ligands to modulate the interaction between the purified bacterial expressed FXR ligand binding domain (LBD) and a synthetic biotinylated peptide based on residues 676-700 of SRC-1 (LCD2, 676-700). The sequence of the peptide used was B-[…]-COOH where the N-terminus was biotinylated (B). The ligand binding domain (LBD) of FXR was expressed as fusion protein with GST in BL-21 cells using the vector pDEST15. Cells were lysed by sonication, and the fusion proteins purified over glutathione sepharose (Pharmacia) according to the manufacturers instructions. […] For ease of handling and reduction of background from compound fluorescence LANCE technology makes use of generic fluorophore labels and time resolved detection Assays were done in a final volume of 25 μl in a 384 well plate, in a Tris-based buffer (20 mM Tris-HCl pH 7.5; 60 mM KCl, 5 mM MgCl2; 35 ng/μl BSA), containing 20-60 ng/well recombinantly expressed FXR-LBD fused to GST, 200-600 nM N-terminally biotinylated peptide, representing SRC1 aminoacids 676-700, 200 ng/well Streptavidin-xIAPC conjugate (Prozyme) and 6-10 ng/well Eu W1024-antiGST (Perkin Elmer). […]

[4] = Aqueous solubility assay, Protocol B, shake-flask method; assay type: physicochemical; conditions: 10 mM PBS buffer with 1% MeOH, kinetic from dmso stock, 10 mM PBS buffer pH 7.4, 1% MeOH, room temperature, read-out: Aqueous solubility pH 7.4 (μM) (±standard deviation), shake-flask method
Method: as §1
Protocol B, Shake-Flask Method:
Sample preparation: Sample and standard solution preparation is performed by mixing equal volumes of acetonitrile containing the internal standard (1 μM final concentration) with sample and calibration standard solutions (100 μl). After vigorously shaking (10 seconds) the samples are centrifuged (6000 g) for 5 minutes at 20° C. Aliquots of the particle-free supernatants are transferred to 200 μl sample vials and subsequently subjected to LC-MS/MS analysis. Assay procedure: Test concentration was 100 μM in 10 mM PBS buffer pH 7.4 with a final MeOH concentration of 1%. The volume of the incubation solution was 500 μl. Depending on each compound's solubility in MeOH, the stock concentration and the incubation concentration was adapted. The test solutions in quadruplicates were shaken at 300 rpm over a 20 hours period at room temperature, followed by centrifugation at 20000 g for 30 minutes to separate the solid phase. 100 μl of particle free sample are added to 100 μl acetonitrile containing the internal standard. The aqueous solubility of the compounds was determined by measuring the concentration of the PBS buffer supernatant by HPLC-MS/MS. Aqueous solubilities of examples and reference compounds are listed below in Table 3.

[5] = Microsomal stability assay; assay type: in vitro ADME; conditions: pH 7.4; mouse liver microsomes, 37° C.
Method: Microsomal Stability Assay
In vitro assays were performed to evaluate the metabolic stability of test items in liver microsomes originating from mouse. Preparation of working standards of test items: Working solutions were prepared for each calibration level by appropriate dilution of the corresponding stock solution, depending on each compound's solubility in acetonitrile or acetonitrile/water. Calibration standards were prepared by spiking 196 μl standard matrix with 4 μl of the corresponding working solution. The standard matrix consists of 0.15 mg/ml of microsomal protein in phosphate buffer (100 mM pH 7.4), the final standard solutions contain 2% acetonitrile. The samples and standard solutions were extracted with ethyl acetate, isolation of the compounds was performed by addition of 600 μl ethyl acetate containing the internal standard (0.1 μM) to 200 μl sample and calibration standard. After vigorously shaking (10 minutes) and centrifugation (5000 g) the aqueous phase was separated by freezing in an acetone/dry ice bath and the organic phase is evaporated to dryness using a vacuum centrifuge. Samples were reconstituted in 200 μl acetonitrile/water mix (1:1 v/v) and subsequently subjected to LC-MS/MS. The incubation solution (180 μl) consisted of 90 μl of a microsomal suspension of 0.33 mg/ml of protein in phosphate buffer 100 mM pH 7.4 and 90 μl NADP-regenerating system. The reaction was initiated by the addition of 20 μl of test compound (in 20% acetonitrile) to the preincubated microsomes/buffer mix at 37° C. 200 μl samples were removed from the incubation after 0, 5, 10, and 30 minutes and processed for ethyl acetate extraction as described above. Negative controls using boiled microsomes (boiling water bath, 25 minutes) without regenerating system were run in parallel. The amount of compound in the samples is expressed as percentage of remaining compound compared to time point zero (=100%). These percentages were plotted against the corresponding time points. Intrinsic clearance (CLint) and half-life (t1/2) estimates were determined using the rate of parent disappearance and following formula (1) and (2). (1) CLint=(−k)×V×fu. (2) t1/2=ln 2/−k. Where CLint=intrinsic clearance [μl/min/mg protein], t1/2=half life [min], k=slope from the linear regression of log [test compound] versus time plot [1/min]. V=6666.7; fu=unbound fraction in the blood. Applying this protocol gave microsomal stabilities for examples and reference compounds as listed below in Table 6: […]

[6] = The Merck index, 10th edition; cited from earlier work

Row | SMILES | PAMPA Permeability [2] [%] | EC50 [3] [µM] | also measured
1 | CC(C)c1onc(-c2c(Cl)cccc2Cl)c1COc1ccc(Oc2ccc(C(=O)O)cc2)cn1 [Example 1, 4-(6-((3-(2,6-Dichlorophenyl)-5-isopropylisoxazol-4-yl)methoxy)pyridin-3-yloxy)benzoic acid] | 54 | ≤ 1 | solubility at 24 h [1]: > 200 µM
2 | CC(C)c1onc(-c2c(Cl)cccc2Cl)c1COc1ccc(Oc2cccc(C(=O)O)c2)cn1 [Example 2, 3-(6-((3-(2,6-Dichlorophenyl)-5-isopropylisoxazol-4-yl)methoxy)pyridin-3-yloxy)benzoic acid] | 43 | ≤ 1 | –
3 | CC(C)c1onc(-c2c(Cl)cccc2Cl)c1COc1ccc(/C=C/c2cccc(C(=O)O)c2)c(Cl)c1 [Compound B, reference compound] | 7 | – | –
4 | CC(C)c1onc(-c2c(Cl)cccc2Cl)c1COc1ccc(Oc2ccc(C(=O)NS(C)(=O)=O)cc2)cn1 [Example 4, 4-(6-((3-(2,6-Dichlorophenyl)-5-isopropylisoxazol-4-yl)methoxy)pyridin-3-yloxy)-N-(methylsulfonyl)benzamide] | – | ≤ 1 | solubility at 20 h [4]: 114 µM (≈ 65.7 µg/mL); melting point: 182 to 184 °C; half-life [5]: 30 min; microsomal CLint [5]: 153 µL/min/mg
5 | CC(C)c1onc(-c2c(Cl)cccc2Cl)c1COc1ccc(Oc2ccc(C(=O)O)cc2)nn1 [Example 5, 4-(6-((3-(2,6-Dichlorophenyl)-5-isopropylisoxazol-4-yl)methoxy)pyridazin-3-yloxy)benzoic acid] | – | ≤ 1 | –
6 | CC(=O)Oc1ccccc1C(=O)O [acetylsalicylic acid] | – | – | Aqueous solubility, reported literature value [6]: at least 2.17 mg/ml
